According to US20260131107A1, “CATHETERS” (ConvaTec Limited, priority 2023, published 2026):

Experiments:
[1] = tested on: ESBL Producing Klebsiella pneumoniae NCTC 13465; test: Direct inoculation method (Assessment 6a); type: cell-based; details: 250 ppm solution
Experimental: (§1) Representative colonies from an 18-24 hour challenge culture plate were dispersed in a 500 µl aliquot of maximum recovery diluent (MRD) to obtain an optical density (OD540 nm) equivalent to approximately I×lO^8 CFU/ml. This was diluted to obtain a working concentration of I×lO^7 CFU/ml. A quantitative count was performed to confirm the inoculum level.
(§2) The bacteria tested were Escherichia coli NCIMB 14067, ESBL Producing Klebsiella pneumoniae NCTC 13465, Enterococcus faecalis NCTC 12201, Proteus mirabilis NCTC 9559 and Pseudomonas aeruginosa NCIMB 8626, which each are commonly associated with causing CAUTI.
(§3) 5 pl of the I×lO^7 CFU/ml challenge suspension was added to a 500 pl aliquot of hypochlorous acid solution (250 ppm) (n=3 per challenge organism, per timepoint) and mixed to form a suspension.
(§4) Following 10 seconds, 1 minute and 2 minutes from adding the challenge suspension to the aliquot of hypochlorous acid, samples were taken from the suspension to establish the number of challenge organisms remaining. This was performed by removing 100 pl volumes and transferring to 0.9 ml and 9.9 ml DENB (for 1:10 and 1:100 dilutions respectively). Appropriate serial dilutions were performed and inoculated onto pre-dried Tryptone Soy Agar (TSA) plates to establish the numbers remaining.

[2] = tested on: Enterococcus faecalis NCTC 12201; test: Direct inoculation method (Assessment 6a); type: cell-based; details: 250 ppm solution
Experimental: as §1, §2, §3, §4

[3] = tested on: Escherichia coli NCIMB 14067; test: Direct inoculation method (Assessment 6a); type: cell-based; details: 250 ppm solution
Experimental: as §1, §2, §3, §4

[4] = tested on: Proteus mirabilis NCTC 9559; test: Direct inoculation method (Assessment 6a); type: cell-based; details: 250 ppm solution
Experimental: as §1, §2, §3, §4

[5] = tested on: Pseudomonas aeruginosa NCIMB 8626; test: Direct inoculation method (Assessment 6a); type: cell-based; details: 250 ppm solution
Experimental: as §1, §2, §3, §4

[6] = tested on: Escherichia coli NCIMB 14067; test: Antimicrobial activity along the catheter method (Assessment 6b); type: cell-based; details: concentration 300 ppm or above; each section of GentleCath Air 2.0 CH14 catheter; two minutes
Experimental: as §1, with “in” for “in a 500 µl aliquot of”, “I×lO^4” for “I×lO^7”
The bacteria tested were Escherichia coli NCIMB 14067 which are bacteria that are commonly associated with causing CAUTI.
GentleCath Air 2.0 CH14 (manufactured by ConvaTec Inc.) intermittent urinary catheters were used for the assessment. Each catheter was prepared within a laminar flow cabinet to maintain sterility. In the assessment, each catheter was hydrated with a 100, 150, 200, 300, 675 or 1000 ppm hypochlorous acid solution. A further catheter was hydrated with sterile deionised water (SDW) and was used as a control.
Enough samples were prepared for n=3 and controls for n=1 per challenge organism.
Each catheter was hydrated with a hypochlorous solution as described above, as per the IFU, and removed from its packaging.
Each catheter was cut into three sections, each section having a length of 2.5 cm, beginning at the tip of the catheter (section 1) and ending proximal to the handle of the catheter (section 3). […]

[7] = tested on: E. coli NCIMB 14067; test: Antimicrobial residual test (Assessment 6c); type: cell-based, Escherichia coli; details: for Antimicrobial residual test result (growth of challenge organism): 40 µl on sterile filter
Experimental: (§5) Representative colonies from an 18-24 hour challenge culture plate were dispersed in maximum recovery diluent (MRD) to obtain an optical density (OD540 nm) equivalent to approximately I×lO^8 CFU/ml. This was diluted to obtain a working concentration of I×lO^6 CFU/ml. A quantitative count was performed to confirm the inoculum level. The bacteria tested were Escherichia coli NCIMB 14067, Enterococcus faecalis NCTC 12201, which each are commonly associated with causing CAUTI. 40 pl of a hypochlorous acid solution (250 ppm), representative of the amount of hypochlorous acid that is left on a catheter following hydration, was placed onto sterile filters. A 40 pl volume of maximum recovery diluent (MRD) was placed onto a further sterile filter as a negative control. A 40 pl volume of approximate 2% […] was placed onto a further sterile filter as a positive control. The filters used were Grade 427 mm Whatman Filters. Following timepoints of 0 minutes, 30 minutes and 4 hours from adding the hypochlorous acid solutions and control to respective sterile filters, each sterile filter was then inoculated with lOpl of IxlO^6 CFU/ml challenge suspension of bacteria, prepared as described above, and left undisturbed for two minutes (to represent approximate urination time). Following the two minutes, the filters were homogenised in Dey-Engley Neutralising Broth (DENB) and appropriate serial dilutions were performed and inoculated onto pre-dried Tryptone Soy Agar (TSA) plates to establish the bacteria numbers remaining.

[8] = tested on: E. faecalis NCTC 12201; test: Antimicrobial residual test (Assessment 6c); type: cell-based, Enterococcus faecalis; details: for Antimicrobial residual test result (growth of challenge organism): 40 µl on sterile filter
Experimental: as §5

[9] = tested on: E. coli NCIMB 14067; test: Antimicrobial efficacy of very low hypochlorous acid concentrations, suspension test (Further Assessment 2); type: cell-based, Escherichia coli; details: for bacterial recovery: 10 ppm solution; for numbers of bacteria recovered: after 30 seconds
Experimental: The antimicrobial efficacy of hypochlorous acid was tested at even lower concentrations (10, 25, and 50 ppm) against the challenging organism E. coli NCIMB 14067. The representative colonies of E. coli NCIMB 14067 were dispersed in maximum recovery diluent (MRD) to obtain an optical density (OD540 nm) equivalent to approximately […]. A quantitative plate count was performed on this suspension to determine the total number of viable organisms inoculated. A new suspension was prepared for each concentration tested. A 1000 ppm hypochlorous acid solution was diluted in sterile deionised water to provide the respective 10, 25 and 50 ppm hypochlorous acid solutions. The hypochlorous acid samples were aliquoted into 9 mL volumes and 1 mL of the challenge organism suspension was added and mixed (the final number of bacteria present is now approximately 1×10^6 CFU/mL). Following 5, 30 seconds, 1, 2, and 5 minutes, 100 pL volumes were sampled and transferred to 0.9 mL and 9.9 mL of Dey-Engley Neutralising Broth (DENB) (to provide a 1:10 and 1:100 dilution respectively), and total viable counts were performed to establish the amount present. The plates were left to dry before being inverted and incubated at 35+3° C. for at least 48 hours. A negative control was also tested whereby 1 mL of the challenge organism suspension was added to 9 mL of MRD and tested as previously described. Following the incubation period, the number of CFUs were counted on the most appropriate dilution for each sample i.e. between 25-250 CFU/plate.

[10] = tested on: Enterococcus faecalis NCTC 12201; test: In vitro direct inoculation method, sulfanilamide comparison (Further Assessment 3); type: cell-based
Experimental: (§6) An in vitro direct inoculation method was used to assess the antimicrobial activity of sulfanilamide in an intermittent urinary catheter scenario against […] Escherichia coli NCIMB 14067 and […] Enterococcus faecalis NCTC 12201; two microorganisms associated with urinary tract infections. Sulfanilamide concentrations of 0.1% and 0.01% were tested and bacterial levels monitored over a period of 5 minutes. Representative colonies of the challenge microorganisms, from an 18-24 hour challenge culture plate, were dispersed in MRD to obtain an optical density (OD540 nm) equivalent to approximately 1×10^8 CFU/mL. This was diluted to obtain a working concentration of 1×10^6 CFU/mL. A quantitative count was performed to confirm the inoculum level. The challenge organism was prepared in MRD to a concentration of approximately 1×10^6 CFU/mL. This suspension was added in a 1 mL volume to 9 mL of sample (n=3 per sample, n=2 per control) in a sterile 30 mL universal and pipetted up and down to mix. Following each testing period, 5 seconds, 30 seconds, 1 minute, 2 minutes and 5 minutes, 100 μL of the test solution was transferred to 0.9 mL and 9.9 mL volumes of DENB (1:10 and 1:100 dilutions, respectively). The most appropriate dilutions were inoculated (100 pL) onto duplicate pre-dried (tryptone soy agar) TSA plates and the inoculum spread using separate sterile L-shaped spreaders (for 10-1 and 10-2 dilutions, 0.5 mL were placed onto duplicate plates). The TSA plates were allowed to dry before being inverted and incubated at 35±3° C. for at least 48 hours. Following the incubation period, the number of bacterial colonies were counted on the most appropriate dilution for each dressing type i.e. between 25-250 CFU/plate. The samples tested were: 0.1% sulfanilamide in sterile deionised water (SDW); 0.01% sulfanilamide in SDW; 100 ppm hypochlorous acid in SDW; and a SDW control.

[11] = tested on: Escherichia coli NCIMB 14067; test: as above; type: cell-based
Experimental: as §6

[12] = inoculated at 0 hour (plus 2 minutes)
[13] = inoculated at 30 minutes (plus 2 minutes)
[14] = inoculated at 4 hours (plus 2 minutes)
[15] = 250 ppm solution on sterile filter
[16] = 100 ppm in SDW, within 5 seconds and for the remaining testing period (to 5 minutes)
[17] = 0.1% and 0.01% in SDW, any timepoint from 5 seconds to 5 minutes

Which “Bacterial numbers reduced to the detection limit (>5 log reduction)” value ([1]; 10 seconds) does the source give for `OCl` [hypochlorous acid] here?
The value was “Yes”.

And the “Bacterial numbers reduced to the detection limit (>5 log reduction)” value ([1]; 1 minute)?
The value was “Yes”.

What about the “Bacterial numbers reduced to the detection limit (>5 log reduction)” value ([1]; 2 minutes) of the same molecule?
Its value is “Yes”.

What about the “Bacterial numbers reduced to the detection limit (>5 log reduction)” value ([2]; 10 seconds) of the same molecule?
The value was “Yes”.

And the “Bacterial numbers reduced to the detection limit (>5 log reduction)” value ([2]; 1 minute)?
The value was “Yes”.

And the “Bacterial numbers reduced to the detection limit (>5 log reduction)” value ([2]; 2 minutes)?
Its value is “Yes”.

What about the “Bacterial numbers reduced to the detection limit (>5 log reduction)” value ([3]; 10 seconds) of the same molecule?
Its value is “Yes”.

And the “Bacterial numbers reduced to the detection limit (>5 log reduction)” value ([3]; 1 minute)?
Its value is “Yes”.

What about the “Bacterial numbers reduced to the detection limit (>5 log reduction)” value ([3]; 2 minutes) of the same molecule?
Its value is “Yes”.

And the “Bacterial numbers reduced to the detection limit (>5 log reduction)” value ([4]; 10 seconds)?
The value was “Yes”.

What about the “Bacterial numbers reduced to the detection limit (>5 log reduction)” value ([4]; 1 minute) of the same molecule?
The value was “Yes”.

And the “Bacterial numbers reduced to the detection limit (>5 log reduction)” value ([4]; 2 minutes)?
Its value is “Yes”.

What about the “Bacterial numbers reduced to the detection limit (>5 log reduction)” value ([5]; 10 seconds) of the same molecule?
Its value is “Yes”.

And the “Bacterial numbers reduced to the detection limit (>5 log reduction)” value ([5]; 1 minute)?
Its value is “Yes”.

And the “Bacterial numbers reduced to the detection limit (>5 log reduction)” value ([5]; 2 minutes)?
Its value is “Yes”.

What about the bacterial cell death [6] of the same molecule?
The bacterial cell death was “greater than 93%”.

And the “Antimicrobial residual test result (growth of challenge organism)” value (“Antimicrobial residual test result” for short) [7, 12]?
Its value is “No growth”.

What about the “Antimicrobial residual test result” value [7, 13] of the same molecule?
Its value is “Growth”.

What about the “Antimicrobial residual test result” value [7, 14] of the same molecule?
Its value is “Growth”.

And the “time by which antimicrobial activity was exhausted” value [7, 15]?
The value was ≤ 30 min.

And the “Antimicrobial residual test result” value [8, 12]?
The value was “No growth”.

What about the “Antimicrobial residual test result” value [8, 13] of the same molecule?
The value was “Growth”.

What about the “Antimicrobial residual test result” value [8, 14] of the same molecule?
Its value is “Growth”.

What about the “time by which antimicrobial activity was exhausted” value [8, 15] of the same molecule?
Its value is ≤ 30 min.

What about the bacterial recovery ([9]; 1 minute timepoint) of the same molecule?
Its bacterial recovery is “undetectable levels”.

What about the bacterial recovery ([9]; at 30 seconds) of the same molecule?
Its bacterial recovery is “over 10 CFU/mL”.

What about the “numbers of bacteria recovered” value ([9]; 25 ppm solution) of the same molecule?
The value was “undetectable numbers of bacteria”.

And the “numbers of bacteria recovered” value ([9]; 50 ppm solution)?
Its value is “undetectable numbers of bacteria”.

And the challenge organism numbers [10, 16]?
The challenge organism numbers was “undetectable numbers”.

And the challenge organism numbers [11, 16]?
Its challenge organism numbers is “undetectable numbers”.

For `Nc1ccc(S(N)(=O)=O)cc1` [sulfanilamide, reference compound], which “challenge organism numbers compared to the control” value [10, 17] is on record?
The value was “no decrease in challenge organism numbers”.

What about the “challenge organism numbers compared to the control” value [11, 17] of the same molecule?
The value was “no decrease in challenge organism numbers”.
